The target in the assay is Aldo-keto reductase family 1 member B1 (Rattus norvegicus, UniProt P07943). In words: Inhibition of aldose reductase in rat lens homogenates by fluorophotometer.

The text below walks through data of BindingDB's records for doi:10.1021/np020058m (Kyoto Pharmaceutical University, 2002).

Usually IC50 stands for the midpoint of a concentration-inhibition curve. Low values mean higher potency, high ones lower potency. Compound `C[C@@H]1O[C@@H](O[C@H]2[C@H](Oc3c(-c4ccc(O)c(O)c4)oc4cc(O)cc(=O)c-4c3O)O[C@H](CO)[C@H](O)[C@@H]2O)[C@H](O)[C@H](O)[C@H]1O` [quercetin 3-O-neohesperidoside] gave an IC50 of 18 µM.

The compound `CC(=O)O[C@H]1[C@H](Oc2c(-c3ccc(O)c(O)c3)oc3cc(O)cc(=O)c-3c2O)O[C@H](CO[C@@H]2O[C@@H](C)[C@H](O)[C@@H](O)[C@H]2O)[C@@H](O)[C@@H]1O` [3-O-alpha-L-rhamnopyranosyl(1->6)-2''-O-acetyl-beta-D-glucopyranoside] came in with an IC50 of 18 µM.
